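Interpolation was linear, between the two tested concentrations surrounding the appropriate level; five concentrations were tested over 48 hours in 96-well plates. GI50 = concentration required for 50% inhibition of growth. The concentration for full growth arrest is given as TGI.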
Legend:
Assay in all cases: growth of human tumour cells (NCI), 48 h
M14 melanoma = system: M14 melanoma
NCI-H522 lung = system: NCI-H522 lung
HL-60(TB) leukemia = system: HL-60(TB) leukemia
RXF 393 renal = system: RXF 393 renal
OVCAR-3 ovarian = system: OVCAR-3 ovarian
NCI-H23 lung = system: NCI-H23 lung
KM12 colon = system: KM12 colon
MDA-MB-231 breast = system: MDA-MB-231 breast
SNB-19 CNS = system: SNB-19 CNS
CCRF-CEM leukemia = system: CCRF-CEM leukemia

SMILES | TGI (M14 melanoma) [µM] | TGI (NCI-H522 lung) [µM] | TGI (HL-60(TB) leukemia) [µM] | TGI (RXF 393 renal) [µM] | TGI (OVCAR-3 ovarian) [µM] | TGI (NCI-H23 lung) [µM] | TGI (KM12 colon) [µM] | TGI (MDA-MB-231 breast) [µM] | TGI (SNB-19 CNS) [µM] | TGI (CCRF-CEM leukemia) [µM] | GI50 (M14 melanoma) [µM] | GI50 (NCI-H522 lung) [µM] | GI50 (RXF 393 renal) [µM] | GI50 (SNB-19 CNS) [µM] | GI50 (CCRF-CEM leukemia) [µM] | GI50 (OVCAR-3 ovarian) [µM] | GI50 (NCI-H23 lung) [µM] | GI50 (KM12 colon) [µM] | GI50 (MDA-MB-231 breast) [µM]
CC1=NN(c2cccc(Cl)c2)C2(SCC(=O)N2c2nc3ccccc3s2)/C1=C\c1cccs1 (centres undefined) | 89.3 | 61.8 | 56 | 51.6 | 86.8 | 43.5 | 94.6 | 87 | – | – | – | – | – | – | – | – | – | – | –
CCn1c(-c2ccc(N=NNc3ccc(-c4n[nH]c(=S)n4CC)cc3)cc2)n[nH]c1=S | 8.2 | 5.71 | – | 11.8 | 5.61 | 6.26 | 5.93 | > 100 | 9.53 | 61.6 | – | – | – | – | – | – | – | – | –
O=C(O)C1C2CCC(O2)C1C(=O)Nc1cccc2cccnc12 (centres undefined) | > 100 | > 100 | – | > 100 | > 100 | > 100 | > 100 | > 100 | > 100 | – | – | – | – | – | – | – | – | – | –
NCCCCc1cc(O)c2c(c1O)C(=O)c1ccccc1C2=O | 33.6 | 23.7 | – | 27.9 | 19.4 | 28.4 | 24.2 | 24.2 | 29.2 | 14.4 | – | – | – | – | – | – | – | – | –
CC1=CC(=O)c2ccccc2C1=O | 15.8 | 11.7 | 5.94 | 26.9 | 23.4 | 19.4 | 23 | 9.87 | 33.5 | 5.76 | – | – | – | – | – | – | – | – | –
COc1cc2c(ccc3c4cc(OC)c(OC)cc4c[n+](C)c23)cc1O | – | 1.86 | > 75 | > 75 | 54.3 | 68.3 | > 75 | – | 32.4 | 34.6 | – | – | – | – | – | – | – | – | –
O=C(OCN1C(=O)C2C3C=CC(C2C1=O)C1C2C(=O)N(COC(=O)C4CCCN4)C(=O)C2C31)C1CCCN1 (centres undefined) | > 100 | > 100 | 43.6 | > 100 | > 100 | > 100 | > 100 | – | > 100 | 53.5 | – | – | – | – | – | – | – | – | –
C[C@H](CCC(=O)O)[C@H]1CC[C@@]2(C)[C@@H]3C(=O)C[C@H]4C(C)(C)[C@@H](O)CC[C@]4(C)[C@H]3C(=O)C[C@]12C | > 100 | > 100 | > 100 | > 100 | > 100 | > 100 | > 100 | > 100 | > 100 | > 100 | – | – | – | – | – | – | – | – | –
CCN(CC(=O)O)C(=O)c1cccnc1 | > 100 | > 100 | – | > 100 | > 100 | > 100 | > 100 | > 100 | > 100 | – | – | – | – | – | – | – | – | – | –
Fc1ccc(C(OCCN2CCC3CCC(C2)N3C/C=C/c2ccco2)c2ccc(F)cc2)cc1 (centres undefined) | 18.8 | 20.5 | – | 15.7 | 27.5 | 24 | 30.6 | 23.6 | 32.8 | 0.419 | – | – | – | – | – | – | – | – | –
O=c1[nH]nc(NNc2ccccc2)c2nnn(C3CCCCC3)c12 | > 100 | – | > 100 | – | > 100 | > 100 | > 100 | > 100 | > 100 | > 100 | – | – | – | – | – | – | – | – | –
CCCNC(=O)CCC(C)C1CCC2C3C(C[C@H](OC(C)=O)[C@]12C)[C@@]1(C)CCC2(C[C@H]1C[C@H]3OC(C)=O)OOC1(CC[C@]3(C)C4C[C@H](OC(C)=O)[C@]5(C)C(C(C)CCC(=O)NCCC)CCC5C4[C@H](OC(C)=O)C[C@@H]3C1)OO2 (some centres undefined) | > 100 | > 100 | > 100 | > 87.1 | > 100 | > 100 | > 100 | > 83.4 | > 100 | > 100 | – | – | – | – | – | – | – | – | –
COc1ccc(C(=O)/C=C/c2cccc([N+](=O)[O-])c2)c(OC)c1 | > 50 | > 50 | – | 2.36 | > 50 | > 50 | 7.65 | > 50 | 4.37 | 4.79 | 1.62 | 1.6 | 1.13 | 1.46 | 1.39 | 1.72 | 2.61 | 1.61 | 1.92
Cc1nn(-c2ccccc2)c(C)c1/C=N/N=C1\SCC(=O)N1c1ccccc1 | 60.7 | – | 82.2 | 42.7 | 78.3 | 86.4 | 94.7 | > 100 | > 100 | > 100 | – | – | – | – | – | – | – | – | –
Clc1cc2c(cc1Cl)CC(NCCN1CCCC1)CC2 (centres undefined) | 25.4 | 32.4 | 37.6 | – | 32 | 30.9 | 32.3 | 30.3 | 46.3 | > 100 | – | – | – | – | – | – | – | – | –
C(=N\NC1=NCCN1)/c1ccc(-c2cn3cc(/C=N/NC4=NCCN4)ccc3n2)cc1 | > 62.6 | > 100 | 19.7 | > 100 | > 67 | > 100 | > 100 | 34.6 | > 61.8 | 25.1 | – | – | – | – | – | – | – | – | –
O=C(/C=C/c1ccccc1)NNC(=O)c1c(Cl)c(Cl)c(Cl)c(Cl)c1-c1nc2ccccc2[nH]1 | 83.5 | 63.4 | 50.7 | 47.3 | > 100 | 60 | – | – | – | 75.8 | – | – | – | – | – | – | – | – | –
